In patent US4623656A, “Method for inhibiting monoamine oxidase-A and treating depression by administering 3-N-methyl-thioxanthen-9-one carboxamide 10,10-dioxide” (priority 1984, dated 1986):

Columns and labels:
[1] = test system: MAO-A (liver); experiment: In vivo inhibition of liver MAO-A in orally pretreated rats; design: species or system rat; conditions: for Percentage Inhibition of MAO-A, Liver: 3 hr after oral dosing, extrapolated to zero tissue dilution; for Inhibition of liver MAO-A by the time of tyramine administration: single oral dose, equipotent doses for tyramine test
Protocol: (§1) To determine MAO inhibition in brains and livers of rats pretreated with reversible inhibitors, it was necessary to use an assay procedure that minimized dilution of the inhibitor. Thus, high concentrations of brain tissue homogenates were incubated for very short incubation times. For brain assays, initial tissue was 3-fold diluted into each assay. Because of the very high MAO activity in liver homogenates, further dilution of tissue was necessary in order to obtain reliable data. In this case, three different homogenate concentrations were assayed, and precent inhibition was extrapolated to zero tissue dilution. Substrate concentrations were not saturating, but were chosen relative to Km values for serotonin and phenethylamine in order to give an estimate of MAO-A and B, respectively.
(§2) Brains from pretreated male Sprague-Dawley rats (sacrificed 3 hours after oral dosing), were homogenized in a buffer consisting of 0.1M potassium phosphate and 5% sucrose (pH 7.4) at a 1:1 tissue wt/buffer volume ratio, using a motorized Teflon/glass homogenizer. MAO-A and B were determined by incubating 100 μl of tissue homogenate with 50 μl of a double-label substrate mixture to give final concentrations of [^3 H] serotonin, 0.4 mM (5 Ci/mol); and [^14 C] β-phenethylamine, 20 μM (3 Ci/mol). For blank assays 100 μl portions of homogenate were pre-incubated at 37° C. with pargyline (4 mM) before substrate addition. Incubations were at 37° C. for 30 sec. Assay mixtures were then acidified and products extracted as in the above in vitro method (White and Glassman). Liver tissue was homogenized in the above phosphate-sucrose buffer at a 1:5 tissue wt/buffer volume ratio. Portions (5, 10 and 50 μ l) of each homogenate were assayed with 50 μl of the above double-label substrate mixture in a total assay volume of 150 μl 0.067M potassium phosphate, pH 7.4. Blank assays included the same amounts of homogenate pre-incubated with 4 mM pargyline for 15 min at 37° C. After addition of substrates, mixtures were incubated at 37° C. for 20 sec, acidified, and products extracted as above. Percent inhibition for each liver homogenate was obtained by plotting % inhibition vs. reciprocal of tissue concentration and extrapolating back to zero dilution.

[2] = target: T1, MAO-A (Rattus norvegicus, UniProt P21396); experiment: In vitro MAO-A inhibition, double-label assay, mitochondrial extracts of rat brain; type: biochemical
T1 construct: mitochondrial extracts of rat or human brain; from tissue; host or cells: rat brain, mitochondrial extract
T1 sequence (P21396 1-526): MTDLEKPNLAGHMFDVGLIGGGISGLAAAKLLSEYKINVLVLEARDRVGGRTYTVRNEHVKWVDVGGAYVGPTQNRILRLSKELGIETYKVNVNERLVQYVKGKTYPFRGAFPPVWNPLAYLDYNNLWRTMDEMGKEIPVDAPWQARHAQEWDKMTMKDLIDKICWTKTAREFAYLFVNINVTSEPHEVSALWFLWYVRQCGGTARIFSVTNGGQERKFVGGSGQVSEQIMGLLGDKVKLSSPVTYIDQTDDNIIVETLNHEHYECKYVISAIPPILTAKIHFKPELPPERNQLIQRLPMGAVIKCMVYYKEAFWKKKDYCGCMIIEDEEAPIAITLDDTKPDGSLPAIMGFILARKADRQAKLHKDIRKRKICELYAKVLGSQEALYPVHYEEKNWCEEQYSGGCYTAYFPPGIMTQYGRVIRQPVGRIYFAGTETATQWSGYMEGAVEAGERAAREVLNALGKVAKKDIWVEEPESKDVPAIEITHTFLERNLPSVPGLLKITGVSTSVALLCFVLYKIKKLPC
Protocol: (§3) MAO was assayed with [^3 H] serotonin (0.2 mM, 5 Ci/mol) and [^14 C] β-phenethylamine (10 μM, 3 Ci/mol) as substrates in a double-label assay (White and Glassman, J. Neurochem 29:987-97 1977).

[3] = test system: MAO-B (brain); experiment: In vivo inhibition of brain MAO-B in orally pretreated rats; design: species or system rat; conditions: 12.5-50 mg/kg p.o., 3 hr after oral dosing
Protocol: as §1
(§4) Brains from pretreated male Sprague-Dawley rats (sacrificed 3 hours after oral dosing), were homogenized in a buffer consisting of 0.1M potassium phosphate and 5% sucrose (pH 7.4) at a 1:1 tissue wt/buffer volume ratio, using a motorized Teflon/glass homogenizer. MAO-A and B were determined by incubating 100 μl of tissue homogenate with 50 μl of a double-label substrate mixture to give final concentrations of [^3 H] serotonin, 0.4 mM (5 Ci/mol); and [^14 C] β-phenethylamine, 20 μM (3 Ci/mol). […]

[4] = test system: MAO; experiment: Time course of in vivo MAO inhibition after oral dosing (other experiments, tissue not stated); design: species or system rat; conditions: oral dose of 50 mg/Kg
Protocol: as §1
as §2, with “([…]),” for “(sacrificed 3 hours after oral dosing),”, “Percent inhibition for each liver homogenate was obtained by plotting % inhibition vs. reciprocal of tissue concentration and extrapolating back to zero dilution.” left out

[5] = test system: hypertensive activity; experiment: Hypertensive activity with orally ingested tyramine in test animals; type: in vivo; conditions: oral antidepressant doses prior to orally ingested tyramine
[6] = target: T2, MAO-A (Homo sapiens, UniProt P21397); experiment: In vitro MAO-A inhibition, double-label assay, mitochondrial extracts of human brain; type: biochemical
T2 construct: mitochondrial extracts of rat or human brain; from tissue; host or cells: human brain, mitochondrial extract
T2 sequence (P21397 1-527): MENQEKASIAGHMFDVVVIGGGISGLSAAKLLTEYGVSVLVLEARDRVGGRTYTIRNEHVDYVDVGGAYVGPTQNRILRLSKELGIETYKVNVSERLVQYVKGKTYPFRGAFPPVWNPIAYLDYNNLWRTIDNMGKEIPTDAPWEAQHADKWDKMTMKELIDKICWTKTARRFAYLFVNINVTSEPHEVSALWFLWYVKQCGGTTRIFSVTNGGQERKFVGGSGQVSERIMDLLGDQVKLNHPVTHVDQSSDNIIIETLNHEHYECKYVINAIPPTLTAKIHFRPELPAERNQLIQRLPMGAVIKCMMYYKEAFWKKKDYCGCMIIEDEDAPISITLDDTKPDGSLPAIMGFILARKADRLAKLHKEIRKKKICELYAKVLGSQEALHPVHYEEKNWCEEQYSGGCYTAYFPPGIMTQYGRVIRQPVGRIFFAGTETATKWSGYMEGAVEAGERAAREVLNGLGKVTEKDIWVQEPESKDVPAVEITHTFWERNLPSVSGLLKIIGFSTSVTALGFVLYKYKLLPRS
Protocol: as §3

[7] = test system: MAO-A (brain); experiment: In vivo inhibition of brain MAO-A in orally pretreated rats; design: species or system rat; conditions: for Percentage Inhibition of MAO-A, Brain: 3 hr after oral dosing; for Inhibition of brain MAO-A by the time of tyramine administration: single oral dose, equipotent doses for tyramine test
Protocol: as §1, §2

[8] = test system: tetrabenazine-induced sedation; experiment: Prevention of tetrabenazine-induced sedation; type: in vivo, Charles River CD-1 male mice
Protocol: Charles River CD-1 male mice (18-22 gm) were pretreated orally with various doses of Compound I or the reference standard, phenelzine, 60 min, 3 hr, or 5 hr before injection of tetrabenazine (35 mg/kg i.p.). […] Thirty minutes after injection of tetrabenazine, each mouse was scored on an arbitrary scale from one to four according to Vernier et al., ([…] Syomp. on Psychosomatic Medicine, J. H. Nodin and J. H. Moyer Eds., Lea and Febiger, Philadelphia, 1962, pp 683-90) for both depression of exploratory behaviour and presence or absence of blepharoptosis. Ratings were converted to a percent of rating received by mice receiving […] prior to tetrabenazine administration.

[9] = test system: MAO-B (liver); experiment: In vivo inhibition of liver MAO-B in orally pretreated rats; design: species or system rat; conditions: 12.5-50 mg/kg p.o., 3 hr after oral dosing
Protocol: as §1, §4

[10] = target: MAO-A; experiment: Kinetic mechanism of MAO-A inhibition (single substrate varied); type: biochemical, rat or human
Protocol: For studies of the kinetic mechanism of inhibition, the above method was used, except that a single substrate (serotonin or tyramine) was varied over a 10-fold concentration range that included the Km concentration. MAO activity was determined in the absence and presence of the compound under test at each substrate concentration in duplicate assays.

[11] = read-out: I50, inhibition of MAO-A

CNC(=O)c1ccc2c(c1)S(=O)(=O)c1ccccc1C2=O [Compound I, 3-N-methylcarbamoylthioxanthen-9-one 10,10-dioxide]
Percentage Inhibition of MAO-A, Liver ([1]; 12.5 mg/kg p.o.): 79 ± 5% | Percentage Inhibition of MAO-A, Liver ([1]; 25 mg/kg p.o.): 94 ± 4% | Percentage Inhibition of MAO-A, Liver ([1]; 50 mg/kg p.o.): 92 ± 4% | Inhibition of liver MAO-A by the time of tyramine administration [1]: ≥ 90% | Inhibition of MAO-A (in words) [2]: potent selective inhibition of MAO-A | IC50 [2, 11]: 50 nM | Inhibition of MAO-B, brain [3]: no significant inhibition of MAO-B in either tissue | Reversibility of the in vivo inhibition [4]: indicating reversibility of the in vivo inhibition | Time of maximum inhibition [4]: 3 to 7 h | Inhibition at 24 hours after dosing ([4]; 24 hours after dosing): negligible | Hypertensive activity (in words) [5]: No significant hypertensive activity | Inhibition of MAO-A (in words) [6]: potent selective inhibition of MAO-A | IC50 [6, 11]: 50 nM | Percentage Inhibition of MAO-A, Brain ([7]; 12.5 mg/kg p.o.): 37 ± 16% | Percentage Inhibition of MAO-A, Brain ([7]; 25 mg/kg p.o.): 49 ± 10% | Percentage Inhibition of MAO-A, Brain ([7]; 50 mg/kg p.o.): 78 ± 2% | Inhibition of brain MAO-A by the time of tyramine administration [7]: approximately 80% | ED50 ([8]; Mus musculus, 1.5 h, oral, 90 minutes, tetrabenazine 35 mg/kg i.p.): 49 ± 10 mg/kg | Prevention of tetrabenazine-induced sedation (in words) ([8]; oral, 90 minutes, tetrabenazine 35 mg/kg i.p.): dose-dependent prevention of tetrabenazine-induced sedation | ED50 at 3 hr after treatment (in words) ([8]; oral, 3 hr after treatment, tetrabenazine 35 mg/kg i.p.): essentially the same as those found at 90 min | ED50 at 5 hr after treatment (in words) ([8]; oral, 5 hr after treatment, tetrabenazine 35 mg/kg i.p.): essentially the same as those found at 90 min | Inhibition of MAO-B, liver [9]: no significant inhibition of MAO-B in either tissue | Ki ([10]; serotonin as substrate, mitochondrial extracts of rat or human brain): 16 nM | Mechanism of inhibition ([10]; vs. the substrates, serotonin or tyramine): competitive

NNCCc1ccccc1 [phenelzine, reference compound]
Inhibition of liver MAO-A by the time of tyramine administration [1]: ≥ 90% | Inhibition of brain MAO-A by the time of tyramine administration [7]: approximately 80%

COc1cc2c(cc1OC)C1CC(=O)C(CC(C)C)CN1CC2 (stereo not drawn) [tetrabenazine, reference compound]
Treated mice remaining motionless with marked blepharoptosis ([8]; tetrabenazine 35 mg/kg i.p. (challenge agent)): 90-100%
